The test system of test [1] is MCF-7 breast cancer cells. The test is described as follows: MCF-7 breast cancer cell line proliferation assay (MTS). The format is cell-based, human. As to conditions: for activity on MCF-7 proliferation (MTS; quantity not given): MCF-7, 72 hours, no E. The protocol: MCF-7 breast cancer cell growth conditions: Cells were grown in 75 cm^2 plastic tissue cell flasks as monolayer in Dulbecco's Modified Eagle Medium (DMEM), supplemented with 10% FBS in a humidified atmosphere of 5% CO2 in 95% air at 37° C. Cells were sub-cultured at bi-weekly intervals by suspension with 0.06% trypsin/0.02% EDTA (pH 7.3).
MCF-7 breast cancer cell line proliferation assays (MITS Assays): Cells were trypsinised (as performed during sub-culturing) in DMEM, supplemented with 10% FBS. Cells were re-suspended to a cell count of 10,000 cells/ml, with the use of a haemocytometer. Cells were seeded at 1,000 cells/well or by the addition of 100 μl of the cell suspension into 96-well cell culture plates. The cells were left overnight and then were synchronised (by serum starving for 24 hours), prior to the start of experiments.
After the cells were synchronised the cells were treated with the appropriate concentrations of the treatments, prepared in 100% ethanol (2, 5, 10, 15, 20, 30 & 50 μg/ml), they were added to RPMI medium 1640 supplemented with 10% dextran-charcoal treated FCS (DCFBS). […] After 72 hours the plates are incubated with MTS reagent (as described in Example 1) for 1 hr. The plate was read in a spectrophotometer at 490 nm. There were 8 replicates for each compound tested (at the various concentrations shown below).
Treatment abbreviations: GT=gamma-tocopherol; GTP=gamma-tocopheryl phosphate; GT2P=gamma-di-tocopheryl phosphate, GTPM=gamma-tocopheryl phosphate mixture (combination of GTP and GT2P).

Test [2] has as its system MCF-7 breast cancer cells. Described as above. The class given is cell-based, human. The conditions noted are these: MCF-7, 72 hours, no E, concentration 1.
For test [3], the system named is DU-145 prostate cancer cells. The test is described as follows: DU-145 cell growth assay (Coulter cell counting). The class given is cell-based. The conditions noted are these: DU-145, 12 days; for Total viable cells/well: single well. The protocol: Culture of stock cells. DU-145 prostate cancer cells were purchased from American Type Culture Collection (Manassas, Va., USA). Stock cells were grown in Dulbecco's Modified Eagle Medium (DMEM) (Gibco BRL, Grand Island N.Y.) supplemented with 5% FBS (Fetal Bovine Serum, Gibco BRL, Grand Island N.Y.) in a humidified atmosphere of 5% CO2 in air at 37° C. Cells were subcultured every 1-2 times a week.
Cell growth assay. Cells were trypsinized from the stock plates by treatment with trypsin/versene, added to an equal volume of phenol red-free RPMI-1640 (Gibco BRL, Grand Island N.Y.) supplemented with 5% dextran-charcoal treated fetal calf serum (DCFCS). Cells were resuspended to a cell count of 0.1×10^5 cells/ml with the use of a haemocytometer and plated in monolayer in 0.5 ml aliquots into 24-well plastic culture dishes (Costar, Corning USA). After 24 hours, cells were treated with appropriate concentrations (see table) of γ-tocopheryl phosphate mixture (γ-TP) (Vital Health) and Lycopene (Sigma) or combinations of Lycopene and γ-TP diluted in phenol red-free RPMI medium 1640 supplemented with 5% DCFCS. The culture medium was changed every 3-4 days. The combination treatment contained lycopene and γ-TP in a 1:1 ratio by molecular weight/mass with lycopene varying from 5 ug/ml-40 ug/ml.
Cell counting. The cells were washed twice with 0.9% NaCl to remove non-adherent dead cells and were then lysed in 0.5 ml 2.5 mM Hepes buffer/[…] MgCl2 plus two drops of zapoglobin II lytic reagent (Beckman Coulter, Coulter Corp USA) for 5-15 minutes. The nuclei released were suspended in isoton III (Beckman Coulter, Coulter Corp, USA) and counted on a Coulter counter with particle size set at >5 μm. All cell counts were carried out in triplicate on triplicate well contents. The results were calculated as the average ±standard error. P-values were determined using Independent samples T-Test (by standard software packages SPSS).

The structures appear in SMILES notation. Where “and” joins values, the source holds several entries; their conditions need not be identical. Equal entries are not always repeated.

Experimental findings from US20090233881A1, “COMPOUNDS HAVING ANTI-CANCER PROPERTIES” (Vital Health Sciences Pty. Ltd, priority 2005, published 2009) are described below.

On to `Cc1c(O)cc2c(c1C)O[C@](C)(CCC[C@H](C)CCC[C@H](C)CCCC(C)C)CC2` [GT, gamma-tocopherol], for which, in test [1] (MCF-7), the “relative potency as anti-cancer treatment” value is reported as “least potent with limited activity”. In addition, the “activity on MCF-7 proliferation (MTS; quantity not given)” value (“activity … (MTS; quantity not given)” for short) in test [1] (concentration 2 μg/ml) was 15.685; in test [1] (concentration 5 μg/ml) it was 36.36; in test [1] (concentration 10 μg/ml), 68.689; in test [1] (concentration 15 μg/ml), 56.82; in test [1] (concentration 20 μg/ml), 79.766; in test [1] (concentration 30 μg/ml), 82.743. For the same molecule, the “activity … (MTS; quantity not given)” value in test [1] (concentration 50 μg/ml) is recorded as 62.622; in test [2], −6.104.

Regarding `Cc1c(OP(=O)(O)O)cc2c(c1C)O[C@](C)(CCC[C@H](C)CCC[C@H](C)CCCC(C)C)CC2` [GTP, gamma-tocopheryl phosphate], the “activity … (MTS; quantity not given)” value in test [1] (concentration 2 μg/ml) stood at 5.624; in test [1] (concentration 5 μg/ml) it was 4.807; in test [1] (concentration 10 μg/ml), 25.102; in test [1] (concentration 15 μg/ml), 43.512; in test [1] (concentration 20 μg/ml) it was 64.719; in test [1] (concentration 30 μg/ml), 81.81. For the same molecule, the “activity … (MTS; quantity not given)” value was 109.928 in test [1] (concentration 50 μg/ml) and 7.32 in test [2].

With `CC(C)=CCC/C(C)=C/C=C/C(C)=C/C=C/C(C)=C/C=C/C=C(C)/C=C/C=C(C)/C=C/C=C(\C)CCC=C(C)C` [lycopene], the “Average total viable cells/well” value in test [3] (Lycopene 5 ug/ml) was 4.367 ×10^5 cells/well; in test [3] (Lycopene 10 ug/ml), 3.712 ×10^5 cells/well; in test [3] (Lycopene 15 ug/ml), 3.716 ×10^5 cells/well; in test [3] (Lycopene 20 ug/ml), 0.276 ×10^5 cells/well; in test [3] (Lycopene 25 ug/ml), 1.478 ×10^5 cells/well; in test [3] (Lycopene 30 ug/ml), 0.120 ×10^5 cells/well. In addition, the Total viable cells/well is 4.392 ×10^5 cells/well and 4.383 ×10^5 cells/well and 4.325 ×10^5 cells/well in test [3] (Lycopene 5 ug/ml); 3.555 ×10^5 cells/well and 3.869 ×10^5 cells/well in test [3] (Lycopene 10 ug/ml); 3.704 ×10^5 cells/well and 3.727 ×10^5 cells/well in test [3] (Lycopene 15 ug/ml); 1.759 ×10^5 cells/well and 1.196 ×10^5 cells/well in test [3] (Lycopene 25 ug/ml).

Regarding `Cc1c(OP(=O)(O)Oc2cc3c(c(C)c2C)O[C@](C)(CCC[C@H](C)CCC[C@H](C)CCCC(C)C)CC3)cc2c(c1C)O[C@](C)(CCC[C@H](C)CCC[C@H](C)CCCC(C)C)CC2` [GT2P, gamma-di-tocopheryl phosphate], the “activity … (MTS; quantity not given)” value in test [1] (concentration 2 μg/ml) was determined as 4.91; in test [1] (concentration 5 μg/ml) it was 31.07; in test [1] (concentration 10 μg/ml), 39.471; in test [1] (concentration 15 μg/ml), 53.126; in test [1] (concentration 20 μg/ml), 64.557; in test [1] (concentration 30 μg/ml), 98.43. Also, the “activity … (MTS; quantity not given)” value in test [1] (concentration 50 μg/ml) was 126.506; in test [2], 7.283.
